Literature values as cited in US6656448B1, “Matrix metalloproteinase inhibitors” (Bristol-Myers Squibb Pharma Company, priority 2000, dated 2003).

Test system: MMP-2 and MMP-9

## O=C(NO)C1(CS(=O)(=O)c2ccc(Oc3ccc(Cl)cc3)cc2)CCOCC1 [Example 13]
  selectivity for MMP-2 and MMP-9: selectivity for MMP-2 and MMP-9
